System: NIDDM KK-A^y male mice
Experiment: Activity on serum glucose and insulin levels in NIDDM KK-A^y male mice
Format: in vivo
Details: percent reduction relative to pre-treatment values, 10 mg/kg orally, twice a day, 5 consecutive days, blood sampled 90 minutes after the last dose
Description: Representative compounds were chosen and evaluated for activity on serum glucose and insulin levels in non-insulin dependent diabetic mellitus (NIDDM) KK-A^y male mice. Post-treatment data for each group were transferred to a percentage of pretreatment values and unpaired Student's t test was used for comparison between vehicle and test substance treated groups. […] The results are presented in Table XXI and in FIGS. 19 and 20.
Activity in NIDDM KK-A^y male mice. Non-insulin dependent diabetic mellitus male mice, weighing 50+/−5 g (9-10 weeks of age) were used. […] The test compounds 105, 115, and 155, and the positive control compound troglitazone were suspended in a 1% carboxymethylcellulose preparation and were given orally at a dose of 10 mg/kg, twice a day, for 5 consecutive days. Blood sampling was performed before the first dose and then 90 minutes after the last dose. Serum glucose and insulin levels were measured.

Cc1c(C)c2c(c(C)c1O)CCC(C)(COc1ccc(CC3SC(=O)NC3=O)cc1)O2 (centres unmarked) [Troglitazone, troglitazone]
Serum Glucose (%): 35% | Serum Insulin (%): 15%

— patent US6958355B2, “Materials and methods for the treatment of diabetes, hyperlipidemia, hypercholesterolemia, and atherosclerosis” (ARYx Therapeutics, Inc., priority 2000, dated 2005)
